Experimental data from patent publication US20170165254A1, “TREATING FLAVIVIRUS INFECTIONS WITH AMODIAQUINE AND DERIVATIVES THEREOF” (GEORGETOWN UNIVERSITY, priority 2014, published 2017).
Read-outs that look alike come from different tables or passages of the source.

Key:
WNV replicon = assay: microbe, parasite or virus in culture; format: cell-based, West Nile virus (WNV); conditions: for % Replicon Inhibition (Means ± SEM) WNV: 50 μM in 1% DMSO; for % Replicon Inhibition (Means ± SEM) WNV / inhibition of WNV replicon replication (in words): Vero/WNV replicon cells; for EC50: read-out: WNV replicon EC50; for inhibition of WNV replicon replication (in words): FIG. 1B
DENV2 replicon = assay: microbe, parasite or virus in culture; format: cell-based, Dengue Virus 2 (DENV2)
BHK-21 cells = assay: Cytotoxicity assay, BHK-21 cells; conditions: read-out: DENV replicon CC50; Table 2; unit inferred
Vero cells = assay: Cytotoxicity assay, Vero cells; conditions: read-out: WNV replicon CC50; Table 2; unit inferred
DENV2 [1] = assay: Inhibition of DENV2 infectivity in BHK-21 cells, plaque assay of supernatants; format: cell-based, Dengue Virus 2 (DENV2); conditions: for EC90: read-out: EC90 for inhibition of DENV2 infectivity (plaque assay)
Description: BHK-21 cells were seeded into 12-well plates (10^5 cells/well) and incubated overnight at 37° C. Cells were infected with DENV2 at a multiplicity of infection (MOI) of 0.01 or 1 as indicated. After infection, cells were washed with PBS and incubated with 1.5 mL of MEM supplemented with 2% FBS, 100 I.U./mL penicillin/100 μg/mL streptomycin (referred to as maintenance medium). AQ, at indicated concentrations, was added and cells were incubated at 37° C. for various time points as indicated. DMSO (1%), as a no-compound control (100% infection), and mock-infected control using medium alone (0% infection) were included. Supernatants were collected from the time point experiments and the virus titers determined by plaque assay.
(§1) BHK-21 cells were seeded at ˜10^5 cells/well (12-well plate) or ˜5×10^4 cells/well (24-well plate) and then incubated at 37° C. until reaching 90% confluence. Cells were infected with the supernatants collected from experiments of AQ treatments. Cells were washed with PBS, and incubated with 1.5 mL of overlay medium (maintenance medium containing 1% methylcellulose). The plates were incubated for 3-4 days at 37° C. under 5% CO2. After plaques became visually apparent by microscopy, cells were fixed and stained with 11.1% formaldehyde, 4.75% isopropanol, and 1% crystal violet for 30 minutes. The number of plaque forming units (PFU) per mL was determined.
BHK-21 cells were seeded as described above. AQ, at indicated concentrations in 1% DMSO, was added to DENV2 (MOI of 0.01 or 1)-infected cells during adsorption and/or post-infection. Supernatants were collected at indicated time points post-infection for plaque assays.

DENV2 [2] = assay: DENV2 intracellular and extracellular RNA levels by qPCR in BHK-21 cells; format: cell-based, Dengue Virus 2 (DENV2); conditions: AQ 5 μM, 72 hours, p<0.001 vs untreated
DENV2 [3] = assay: Time-course analysis on DENV2 infectivity (indirect plaque assay); format: cell-based, Dengue Virus 2 (DENV2)
Description: as §1
BHK-21 cells were grown in 6-well plates (˜2.5×10^5 cells/well) and were infected with DENV2 at a MOI of 0.01 in the maintenance medium. Cells were washed with PBS and incubated with 3 mL of maintenance medium. AQ at indicated concentrations was added and cells were incubated at 37° C. Supernatants were sampled as indicated and stored at −70° C. for plaque assays.

Rluc enzyme = biological target: T1, Rluc enzyme (Renilla reniformis, UniProt P27652); format: biochemical; conditions: added to BHK-21/DENV2 replicon cell lysate
T1 sequence (P27652 1-311): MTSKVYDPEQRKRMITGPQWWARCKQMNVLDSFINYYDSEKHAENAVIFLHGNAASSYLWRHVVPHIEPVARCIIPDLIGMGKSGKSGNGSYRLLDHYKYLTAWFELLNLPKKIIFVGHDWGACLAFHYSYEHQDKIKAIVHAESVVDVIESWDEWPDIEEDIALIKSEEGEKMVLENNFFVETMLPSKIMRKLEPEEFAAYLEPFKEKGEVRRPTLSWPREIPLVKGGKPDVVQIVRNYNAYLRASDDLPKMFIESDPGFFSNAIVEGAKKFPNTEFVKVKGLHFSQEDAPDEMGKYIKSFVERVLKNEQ

DENV2 [4] = assay: Time of addition assay; format: cell-based, Dengue Virus 2 (DENV2)
DENV2 [5] = assay: Direct plaque assay, AQ present only during adsorption (viral entry); format: cell-based, Dengue Virus 2 (DENV2)
DENV2 [6] = assay: Order of addition assay; format: cell-based, Dengue Virus 2 (DENV2); conditions: AQ 5 μM added post-infection; 48 and 72 hours; MOI of 1

SMILES: CCN(CC)Cc1cc(Nc2c(C)cnc3cc(Cl)ccc23)ccc1O [AQ derivative 1]
- % Replicon Inhibition (Means ± SEM) WNV (WNV replicon): 97.9 ± 0.5%
- EC50 (WNV replicon; Table 2, unit inferred): 14.8 ± 0.48 µM
- inhibition of WNV replicon replication (in words) (WNV replicon): strong inhibition
- % Replicon Inhibition (Means ± SEM) DENV2 (DENV2 replicon): 89.9 ± 10.6%
- inhibition of DENV2 replicon replication (in words) (DENV2 replicon): strong inhibition
- EC50 (DENV2 replicon; read-out: DENV replicon EC50): 21.1 ± 1.22 µM

SMILES: CC[N+](C)(CC)Cc1cc(Nc2ccnc3cc(Cl)ccc23)ccc1O [AQ derivative 2]
- % Replicon Inhibition (Means ± SEM) WNV (WNV replicon): 50.6 ± 4.4%
- EC50 (WNV replicon; Table 2, unit inferred): 30.2 ± 6.05 µM
- % Replicon Inhibition (Means ± SEM) DENV2 (DENV2 replicon): 69.9 ± 3.4%
- EC50 (DENV2 replicon; read-out: DENV replicon EC50): 29.7 ± 2.26 µM

SMILES: CCN(CC)Cc1cc(Nc2c(C3CCCC3)c(C)nc3cc(Cl)ccc23)ccc1O [AQ derivative 4]
- % Replicon Inhibition (Means ± SEM) WNV (WNV replicon): 99.8 ± 0.01%
- EC50 (WNV replicon; Table 2, unit inferred): 3.31 ± 0.73 µM
- inhibition of WNV replicon replication (in words) (WNV replicon): strong inhibition
- % Replicon Inhibition (Means ± SEM) DENV2 (DENV2 replicon): 99.99 ± 0.0%
- inhibition of DENV2 replicon replication (in words) (DENV2 replicon): strong inhibition
- EC50 (DENV2 replicon; read-out: DENV replicon EC50): 15.4 ± 1.31 µM

SMILES: C=CN(C)Cc1cc(Nc2ccnc3cc(Cl)ccc23)ccc1O [AQ derivative 6]
- % Replicon Inhibition (Means ± SEM) WNV (WNV replicon): 99.5 ± 0.1%
- EC50 (WNV replicon; Table 2, unit inferred): 6.29 ± 0.52 µM
- inhibition of WNV replicon replication (in words) (WNV replicon): strong inhibition
- CC50 (BHK-21 cells): 16.4 ± 0.46 µM
- % Replicon Inhibition (Means ± SEM) DENV2 (DENV2 replicon): 98.5 ± 1.3%
- inhibition of DENV2 replicon replication (in words) (DENV2 replicon): strong inhibition
- EC50 (DENV2 replicon; read-out: DENV replicon EC50): 12.5 ± 2.19 µM
- CC50 (Vero cells): 18.2 ± 1.05 µM

SMILES: COc1ccc(Nc2ccnc3cc(Cl)ccc23)cc1CN(CCCl)C(C)CCl (centres unmarked) [AQ derivative 7]
- % Replicon Inhibition (Means ± SEM) WNV (WNV replicon): 97.7 ± 1.1%
- EC50 (WNV replicon; Table 2, unit inferred): 14.8 ± 1.14 µM
- inhibition of WNV replicon replication (in words) (WNV replicon): strong inhibition
- CC50 (BHK-21 cells): 17.7 ± 1.96 µM
- % Replicon Inhibition (Means ± SEM) DENV2 (DENV2 replicon): 93.0 ± 2.6%
- inhibition of DENV2 replicon replication (in words) (DENV2 replicon): strong inhibition
- EC50 (DENV2 replicon; read-out: DENV replicon EC50): 19 ± 1.73 µM
- CC50 (Vero cells): 34.8 ± 1.78 µM

SMILES: Oc1ccc(Nc2ccnc3cc(Cl)ccc23)cc1 [AQ derivative 8]
- % Replicon Inhibition (Means ± SEM) WNV (WNV replicon): 57.2 ± 5.1%
- EC50 (WNV replicon; Table 2, unit inferred): > 100 µM
- CC50 (BHK-21 cells): > 100 µM
- % Replicon Inhibition (Means ± SEM) DENV2 (DENV2 replicon): 3.9 ± 0.3%
- inhibition of DENV2 replicon replication (in words) (DENV2 replicon): failed to inhibit replicon replication
- EC50 (DENV2 replicon; read-out: DENV replicon EC50): > 100 µM
- EC50 (DENV2 replicon; read-out: EC50 values, BHK-21/DENV2 replicon cells): ~100 µM
- EC90 (DENV2 [1]; MOI of 1, supernatants at 72 hours, BHK-21 cells): 31.2 ± 5.15 µM
- CC50 (Vero cells): > 100 µM

SMILES: CCN(CC)Cc1cc(Nc2ccnc3cc(Cl)ccc23)ccc1O [AQ, 4-[(7-chloroquinolin-4-yl)amino]-2(diethylaminomethyl)phenol]
- inhibition at 50 µM (WNV replicon; West Nile virus, Vero, read-out: % Replicon Inhibition (Means ± SEM) WNV): 96.3 ± 0.39%
- EC50 (WNV replicon; West Nile virus, Vero): 14.6 ± 2.21 µM
- DENV2 replication, intracellular and extracellular RNA levels (qRT-PCR) (DENV2 [2]): effectively inhibited DENV2 replication
- CC50 (BHK-21 cells): 80 ± 6.27 µM
- inhibition of DENV2 infectivity, indirect plaque assay (DENV2 [3]; AQ 5 μM present during and up to 96 hours post-infection): significant inhibition
- plaque formation reduced (DENV2 [3]; AQ 5 μM, MOI of 0.01, added during adsorption and post-infection): ≥ 90%
- virus titers (PFU/mL) over time course (DENV2 [3]; AQ 1, 5, 10, 25 μM, MOI of 0.01, p<0.05): reduced significantly in a dose-dependent manner
- interference with Rluc enzyme activity (Rluc enzyme): did not interfere
- % Replicon Inhibition (Means ± SEM) DENV2 (DENV2 replicon): 76.3 ± 1.6%
- inhibition at 50 µM (DENV2 replicon; Dengue virus, DENV2, BHK-21, read-out: % Replicon Inhibition (Means ± SEM) DENV2): 76.3 ± 1.6%
- EC50 (DENV2 replicon; Dengue virus, DENV2, BHK-21, read-out: DENV replicon EC50): 10.8 ± 1.43 µM
- EC50 (DENV2 replicon; Dengue virus, DENV2, BHK-21, read-out: EC50 in BHK-21/DENV2 replicon cells): 7.41 ± 1.09 µM
- virus infectivity (PFU/mL of supernatant) by plaque assay (DENV2 [1]; AQ 5 μM, 72 hours, BHK-21 cells): significant reduction
- EC90 (DENV2 [1]; Dengue virus, DENV2, BHK-21, 96 h): 2.71 ± 0.85 µM
- EC50 (DENV2 [1]; Dengue virus, DENV2, MOI of 1, supernatants at 72 hours, BHK-21 cells, read-out: EC50 for inhibition of extracellular release of DENV2 (plaque assay)): 1.08 ± 0.09 µM
- EC90 (DENV2 [1]; Dengue virus, DENV2, MOI of 1, supernatants at 72 hours, BHK-21 cells): 2.69 ± 0.4 µM
- plaque reduction (DENV2 [4]; AQ 5 μM added as late as 15 hours post-infection, supernatants at 72 hours, MOI of 1): ≥ 90%
- inhibitory effect when added late (DENV2 [4]; AQ 5 μM added at 21 hours post-infection and later): lost its inhibitory effect
- inhibition of DENV2 infection when added early (DENV2 [4]; AQ 5 μM added up to 12 hours post-infection, supernatants at 48 hours): inhibited DENV2 infection steadily
- plaque titer versus DMSO control, direct plaque assay (DENV2 [5]; AQ 5 μM only during adsorption, MOI of 0.01): not significantly different
- virus titer reduced, direct plaque assay (DENV2 [5]; AQ 10 μM during adsorption): 69.23±1.57%
- virus titer reduced, direct plaque assay (DENV2 [5]; AQ 25 μM during adsorption): 82.70±2.48%
- CC50 (Vero cells): 24.4 ± 2.49 µM
- reduction of plaque titer from DMSO control (DENV2 [6]): ≥ 90%
